Converted amounts (≈) assume the structure as drawn. Blank lines part the entries; values can stand above or below the compound they belong to. The source made the active and inactive calls. No cut-off for these calls is given here.
Key:
[1] = tested on: Neutrophil; assay: Antiinflammatory activity against human neutrophils assessed as inhibition of LPS-stimulated TNFalpha production at 10 ug/ml after 3 hrs by FACS analysis
[2] = tested on: Streptococcus mutans; assay: Antimicrobial activity against Streptococcus mutans ATCC 25175 by turbidimetric analysis; assay type: functional
[3] = tested on: Enterococcus faecium; assay: Antimicrobial activity against Enterococcus faecium ATCC 8042 by turbidimetric analysis; assay type: functional
[4] = tested on: Enterococcus faecalis; assay: Antimicrobial activity against Enterococcus faecalis ATCC 29212 by turbidimetric analysis; assay type: functional
[5] = tested on: Streptococcus sanguinis; assay: Antimicrobial activity against Streptococcus sanguis ATCC 10556 by turbidimetric analysis; assay type: functional
[6] = tested on: Actinomyces viscosus; assay: Antimicrobial activity against Actinomyces viscosus ATCC 15987 by turbidimetric analysis; assay type: functional
[7] = tested on: Aggregatibacter actinomycetemcomitans; assay: Antimicrobial activity against Haemophilus actinomycetemcomitans ATCC 29522 by turbidimetric analysis; assay type: functional
[8] = tested on: Prevotella intermedia; assay: Antimicrobial activity against Prevotella intermedia ATCC 25611 by turbidimetric analysis; assay type: functional
[9] = tested on: Fusobacterium nucleatum; assay: Antimicrobial activity against Fusobacterium nucleatum ATCC 10953 by turbidimetric analysis; assay type: functional
[10] = tested on: Porphyromonas gingivalis; assay: Antimicrobial activity against Porphyromonas gingivalis ATCC 33277 by turbidimetric analysis; assay type: functional
[11] = tested on: Streptococcus mutans; assay: Bactericidal activity against Streptococcus mutans ATCC 25175 after 24 hrs by turbidimetric analysis; assay type: functional; conditions: ATCC 25175, 24 h
[12] = tested on: Enterococcus faecium; assay: Bactericidal activity against Enterococcus faecium ATCC 8042 after 24 hrs by turbidimetric analysis; assay type: functional; conditions: ATCC 8042, 24 h
[13] = tested on: Enterococcus faecalis; assay: Bactericidal activity against Enterococcus faecalis ATCC 29212 after 24 hrs by turbidimetric analysis; assay type: functional; conditions: ATCC 29212, 24 h
[14] = tested on: Streptococcus sanguinis; assay: Bactericidal activity against Streptococcus sanguis ATCC 10556 after 24 hrs by turbidimetric analysis; assay type: functional; conditions: ATCC 10556, 24 h
[15] = tested on: Actinomyces viscosus; assay: Bactericidal activity against Actinomyces viscosus ATCC 15987 after 24 hrs by turbidimetric analysis; assay type: functional; conditions: ATCC 15987, 24 h
[16] = tested on: Aggregatibacter actinomycetemcomitans; assay: Bactericidal activity against Haemophilus actinomycetemcomitans ATCC 29522 after 24 hrs by turbidimetric analysis; assay type: functional; conditions: ATCC 29522, 24 h
[17] = tested on: Prevotella intermedia; assay: Bactericidal activity against Prevotella intermedia ATCC 25611 after 24 hrs by turbidimetric analysis; assay type: functional; conditions: ATCC 25611, 24 h
[18] = tested on: Fusobacterium nucleatum; assay: Bactericidal activity against Fusobacterium nucleatum ATCC 10953 after 24 hrs by turbidimetric analysis; assay type: functional; conditions: ATCC 10953, 24 h
[19] = tested on: Porphyromonas gingivalis; assay: Bactericidal activity against Porphyromonas gingivalis ATCC 33277 after 24 hrs by turbidimetric analysis; assay type: functional; conditions: ATCC 33277, 24 h
[20] = tested on: Streptococcus mutans; assay: Antimicrobial activity against Streptococcus mutans ATCC 25175 assessed as log reduction in bacterial growth at 250 ug/ml measured at 10 hrs by time kill analysis; assay type: functional
[21] = tested on: Streptococcus mutans; assay: Antimicrobial activity against Streptococcus mutans ATCC 25175 after 12 hrs by time kill analysis; assay type: functional, organism-based
[22] = tested on: Streptococcus mutans; assay: Antimicrobial activity against adherent cells of Streptococcus mutans ATCC 25175 at 1000 ug/ml; assay type: functional, organism-based
[23] = tested on: Streptococcus mutans; assay: Antimicrobial activity against Streptococcus mutans ATCC 25175 at 125 to 500 ug/ml by time kill analysis; assay type: functional, organism-based; conditions: TDE = time-dependent effect
[24] = tested on: Streptococcus mutans; assay: Antimicrobial activity against Streptococcus mutans ATCC 25175 assessed as post antibiotic effect at 250 ug/ml; assay type: functional
[25] = tested on: Streptococcus mutans; assay: Antimicrobial activity against Streptococcus mutans ATCC 25175 assessed as post antibiotic effect at 2 times MIC; assay type: functional
[26] = tested on: Actinomyces viscosus; assay: Antimicrobial activity against Actinomyces viscosus ATCC 15987 assessed as post antibiotic effect at 250 ug/ml; assay type: functional
[27] = tested on: Actinomyces viscosus; assay: Antimicrobial activity against Actinomyces viscosus ATCC 15987 assessed as post antibiotic effect at 2 times MIC; assay type: functional
[28] = tested on: Streptococcus mutans; assay: Antimicrobial activity against Streptococcus mutans ATCC 25175 assessed as inhibition of biofilm formation after 24 hrs by crystal violet staining; assay type: functional, organism-based; conditions: ATCC 25175, 24 h
[29] = tested on: Actinomyces viscosus; assay: Antimicrobial activity against Actinomyces viscosus ATCC 15987 assessed as inhibition of biofilm formation after 24 hrs by crystal violet staining; assay type: functional, organism-based; conditions: ATCC 15987, 24 h
[30] = tested on: Streptococcus mutans; assay: Antimicrobial activity against Streptococcus mutans ATCC 25175 assessed as eradication of preformed biofilm after 24 hrs by crystal violet staining; assay type: functional, organism-based; conditions: ATCC 25175, 24 h
[31] = tested on: Actinomyces viscosus; assay: Antimicrobial activity against Actinomyces viscosus ATCC 15987 assessed as eradication of preformed biofilm after 24 hrs by crystal violet staining; assay type: functional, organism-based; conditions: ATCC 15987, 24 h
[32] = tested on: Streptococcus mutans; assay: Antimicrobial activity against Streptococcus mutans ATCC 25175 assessed as increase in membrane permeability at 1000 ug/ml after 30 mins by propidium iodide staining-based flow cytometry; assay type: functional, organism-based
[33] = tested on: Actinomyces viscosus; assay: Antimicrobial activity against Actinomyces viscosus ATCC 15987 assessed as increase in membrane permeability at 1000 ug/ml after 30 mins by propidium iodide staining-based flow cytometry; assay type: functional, organism-based
[34] = tested on: Liver microsomes; assay: Antioxidant activity in rat liver microsomes assessed as reduction in lipid peroxidation at 10 to 100 ug/ml by thiobarbituric acid assay; assay type: functional; conditions: Microsome
[35] = tested on: Neutrophil; assay: Antiinflammatory activity against human neutrophils assessed as inhibition of LPS-stimulated TNFalpha production at 5 ug/ml after 3 hrs by FACS analysis; assay type: functional, cell-based
[36] = tested on: Neutrophil; assay: Antiinflammatory activity against human neutrophils assessed as inhibition of LPS-stimulated TNFalpha production at 2.5 ug/ml after 3 hrs by FACS analysis; assay type: functional, cell-based
[37] = tested on: Neutrophil; assay: Antiinflammatory activity against human neutrophils assessed as inhibition of LPS-stimulated TNFalpha production at 10 ug/ml after 3 hrs by FACS analysis; assay type: functional, cell-based
[38] = Cytotoxicity against human neutrophils at 2.5 to 10 ug/ml after 3 hrs by MTT assay; assay type: cell-based; conditions: neutrophil
[39] = species: Homo sapiens; assay: Toxicity in healthy human assessed as occurrence of after taste; assay type: organism-based; conditions: in vivo
[40] = species: Homo sapiens; assay: Toxicity in healthy human assessed as occurrence of tingling sensation; assay type: organism-based; conditions: in vivo
[41] = tested on: Streptococcus mutans; conditions: ATCC 25175, 1000 ug/ml
Description: Antimicrobial activity against adherent cells of Streptococcus mutans ATCC 25175 assessed as inhibition of water-insoluble glucan synthesis at 1000 ug/ml in presence of sucrose

SMILES: COc1ccc(C2CNC(=O)C2)cc1OC1CCCC1 (configuration not stated)
- inhibition [1]: Active

- MIC [2]: 250 µg/mL (≈ 1660 µM)
- MIC [3]: 250 µg/mL (≈ 1660 µM)
- MIC [4]: 250 µg/mL (≈ 1660 µM)
- MIC [5]: 125 µg/mL (≈ 832 µM)
- MIC [6]: 250 µg/mL (≈ 1660 µM)
- MIC [7]: 250 µg/mL (≈ 1660 µM)
- MIC [8]: 125 µg/mL (≈ 832 µM)
- MIC [9]: 125 µg/mL (≈ 832 µM)
- MIC [10]: 62.5 µg/mL (≈ 416 µM)
- IC50 [28]: 500 µg/mL (≈ 3330 µM)
- IC50 [29]: 500 µg/mL (≈ 3330 µM)
- IC50 [30]: 500 µg/mL (≈ 3330 µM)
- IC50 [31]: 1000 µg/mL (≈ 6660 µM)
SMILES: C=CCc1ccc(O)c(O)c1 [HYDROXYCHAVICOL]
- MBC [11]: 500 µg/mL (≈ 3330 µM)
- MBC [12]: 500 µg/mL (≈ 3330 µM)
- MBC [13]: 250 µg/mL (≈ 1660 µM)
- MBC [14]: 125 µg/mL (≈ 832 µM)
- MBC [15]: 500 µg/mL (≈ 3330 µM)
- MBC [16]: 500 µg/mL (≈ 3330 µM)
- MBC [17]: 125 µg/mL (≈ 832 µM)
- MBC [18]: 125 µg/mL (≈ 832 µM)
- MBC [19]: 62.5 µg/mL (≈ 416 µM)
- log reduction [20]: 3
- Activity [21]: Dose-dependent effect
- Activity [22]: Active
- Activity [23]: tde
- PAE [24]: 3.5 h
- PAE [25]: 6 h
- PAE [26]: 4 h
- PAE [27]: 7 h
- Activity [32]: Active
- Activity [33]: Active
- inhibition [34]: 15%
- inhibition [35]: Active
- inhibition [36]: Active
- inhibition [37]: Active
- Activity [38]: Non-toxic
- Activity [39]: Non-toxic
- Activity [40]: Non-toxic
- inhibition [41]: Active

SMILES: Cc1ccc(C(C)C)c(O)c1 [THYMOL]
- Activity [38]: Non-toxic

Reference: ChEMBL document CHEMBL1629551, “Evaluation of the antimicrobial, antioxidant, and anti-inflammatory activities of hydroxychavicol for its potential use as an oral care agent” (Antimicrob Agents Chemother, 2009)
